Measured values as given in patent US20250170101A1, “MONOACYLGLYCEROL LIPASE INHIBITORS AND USE THEREOF FOR THE TREATMENT AND MANAGEMENT OF PAIN AND RELATED CONDITIONS” (Psy Therapeutics, Inc., priority 2021, published 2025).

Experiments:
human MAGL = molecular target: T1, human MAGL (Homo sapiens, UniProt Q99685); assay: MAGL inhibition potency (IC50) with 4NPA substrate, Example 20, methods of Table C; assay type: biochemical; settings: Method 12: Enzyme Conc 15, Reaction Biology (15 nM); read-out: MAGL Potency (Detection Method)
T1 construct: recombinant MAGL enzyme (aa 2-303 RBC, internal preparation)
T1 sequence (Q99685 2-303): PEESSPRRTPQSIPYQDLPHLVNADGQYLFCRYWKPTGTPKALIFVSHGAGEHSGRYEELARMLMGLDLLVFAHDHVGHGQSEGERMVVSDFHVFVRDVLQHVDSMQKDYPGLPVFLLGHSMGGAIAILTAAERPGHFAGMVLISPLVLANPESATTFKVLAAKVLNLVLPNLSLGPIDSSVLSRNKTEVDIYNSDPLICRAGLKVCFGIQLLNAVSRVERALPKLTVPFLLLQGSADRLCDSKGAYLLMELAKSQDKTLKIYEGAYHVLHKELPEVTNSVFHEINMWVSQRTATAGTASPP

MAGL enzyme = molecular target: T2, MAGL enzyme (Homo sapiens, UniProt Q99685); assay: MAGL reversible inhibition assay (washout), Example 22; assay type: biochemical; design: % MAGL activity returning after washout: concentration or dose not given beside the values
T2 sequence (Q99685 1-303): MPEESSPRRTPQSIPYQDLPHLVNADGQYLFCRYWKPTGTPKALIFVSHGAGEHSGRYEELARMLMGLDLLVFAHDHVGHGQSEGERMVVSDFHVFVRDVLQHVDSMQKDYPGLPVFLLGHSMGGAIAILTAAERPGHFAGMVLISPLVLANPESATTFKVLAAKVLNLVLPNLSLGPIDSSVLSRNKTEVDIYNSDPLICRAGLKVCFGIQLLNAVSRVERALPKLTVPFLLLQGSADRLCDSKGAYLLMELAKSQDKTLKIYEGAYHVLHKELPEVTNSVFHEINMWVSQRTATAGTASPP

With `Cc1cn(C2CC3(C2)CN(C(=O)c2cc(O)ccc2F)C3)nc1-c1cc(F)ccc1Cl` (single isomer, unassigned) [Compound 520, {6-[3-(2-chloro-5-fluorophenyl)-4-methyl-1-pyrazolyl]-2-aza-2-spiro[3.3]heptyl}(2-fluoro-5-hydroxyphenyl)methanone] the IC50 (human MAGL) was under 50 nM, the “degree to which MAGL enzymatic activity returned following washout of test compounds” value (MAGL enzyme; pre-washout compound concentration 1 μM) was 100 and the “% MAGL activity returning after washout” value (MAGL enzyme; relative to control (no inhibitor before washout), immediately following 30 minute washout) was over 50%.
